Assay results from US20110190129A1, “IMPROVEMENTS IN OR RELATING TO ORGANIC COMPOUNDS” (SYNGENTA LIMITED, priority 2007, published 2011).
Like-named read-outs stand apart in the source and are kept apart here. Marks after values point to notes of the source that are not given here.

Test: Solubility of pesticide samples in solvents (equilibration, 25 C, HPLC analysis)
Assay type: physicochemical
Method: The following general method is used to measure the solubility of pesticide samples in solvents. A 2 ml aliquot of solvent is added to a 5 ml volume glass vial. Pesticide is added such that half of the volume of the liquid is filled. The sample is shaken for one minute and left to stand for 24 hours. Samples which have dissolved are refilled with more of the pesticide, shaken and left for a further 24 hours. This process is continued until the samples have equilibrated for three days without the need for further pesticide addition. The samples are then placed in a temperature controlled oven at 25 C for one week prior to analysis by high pressure liquid chromatography. All samples are filtered and centrifuged prior to chromatographic analysis.

[1] = comparison in words, dimethyl lactamide versus the other two solvents
[2] = solvent Solvesso 200ND, 25 C, Table 1
[3] = solvent acetophenone, 25 C, Table 1
[4] = solvent dimethyl lactamide, 25 C, Table 1

Row | SMILES | Solubility in Solvesso 200ND (1 week) [% w/w] | Solubility in dimethyl lactamide (1 week) [% w/w] | Solubility in dimethyl lactamide compared with Solvesso 200ND or acetophenone [1] | Solubility in Solvesso 200ND [2] | Solubility in acetophenone [3] [% w/w] | Solubility in dimethyl lactamide [4] [% w/w] | Solubility in dimethyl lactamide compared with Solvesso 200ND or acetophenone | also measured
1 | Fc1ccc([C@]2(Cn3cncn3)O[C@H]2c2ccccc2Cl)cc1 (racemic) [Epoxiconazole, epoxiconazole] | 2.5 | 8.0 |  |  |  |  |  | 
2 | CCNc1nc(NC(C)C)nc(SC)n1 [Ametryn] | 29.3 | 53.0 |  |  |  |  |  | Solubility in acetophenone (1 week): 47.4 % w/w
3 | N#Cc1c(Cl)c(Cl)c(Cl)c(C#N)c1Cl [Chlorothalonil, chlorothalonil] |  |  | lower |  |  |  |  | 
4 | CC(C)C1C2CCC1c1c(NC(=O)c3cn(C)nc3C(F)F)cccc12 (stereo not drawn) [Compound of FIG. 2, 3-difluoromethyl-1-methyl-1H-pyrazole-4-carboxylic acid(9-isopropyl-1,2,3,4-tetrahydro-1,4-methano-naphthalen-5-yl)-amide] |  |  | better | 5.6 % w/w | 14.1 | 32.1 |  | 
5 | CN(C)C(=O)Nc1ccc(Cl)c(Cl)c1 [Diuron] |  |  |  | <0.2* % w/w | 4.8 | 11.0 |  | 
6 | N#Cc1c[nH]cc1-c1cccc2c1OC(F)(F)O2 [Fludioxynil] |  |  | better | 0.3 % w/w | 8.5 | 30.1 |  | 
7 | CCCCC(O)(Cn1cncn1)c1ccc(Cl)cc1Cl (stereo not drawn) [Hexaconazole, hexaconazole] | 4.4 | 18 |  |  |  |  | better | Solubility in acetophenone (1 week): 11.7 % w/w
8 | CCN(CC)C(=O)C(C)Oc1cccc2ccccc12 (stereo not drawn) [Napropamide, napropamide] |  |  |  |  |  |  | lower | Solubility in Solvesso 200ND: 20.7; Solubility in acetophenone: 27.6 % w/w; Solubility in dimethyl lactamide: 19.2 % w/w
9 | CSc1nc(NC(C)C)nc(NC(C)C)n1 [Prometryn, prometryn] | 12 | 43 |  |  |  |  | better | Solubility in acetophenone (1 week): 19 % w/w
10 | CNC(=O)c1cc(Cl)cc(C)c1NC(=O)c1cc(Br)nn1-c1ncccc1Cl [Rynaxypry] |  |  |  | 0.06 % w/w | 0.75 | 2.8 |  | 
11 | CN1COCN(Cc2cnc(Cl)s2)/C1=N\[N+](=O)[O-] [Thiamethoxam, thiamethoxam] |  |  | better | 0.2 % w/w | 5.0 | 9.0 |  | 
12 | CCO/N=C(\CC)C1=C(O)CC(c2c(C)cc(C)cc2C)CC1=O (stereo not drawn) [Tralkoxydim, tralkoxydim] |  |  |  |  |  |  | lower | Solubility in acetophenone: 12.7 % w/w; Solubility in dimethyl lactamide: 3.2 % w/w
